# According to PMC2219262 (The Journal of General Physiology, 1996):
# “And” between values parts separate entries of the source, which are not always exact repeats. Identical values can stand only once. “Also recorded” adds a separate entry of the source. Like-named read-outs stand apart in the source and are kept apart here.
# Assays:
# Ca2+ current (ICa) = format: cell-based, squid Loligo opalescens
# pKa of methadone = format: physicochemical; settings: implied by pKa
# [1] = ref Kaufman et al., 1975; cited from earlier work
# [2] = target: K+ current (IK), K channels (Doryteuthis opalescens, UniProt Q25376); format: cell-based, squid Loligo opalescens
# Sequence of K+ current (IK), K channels (Q25376 1-488): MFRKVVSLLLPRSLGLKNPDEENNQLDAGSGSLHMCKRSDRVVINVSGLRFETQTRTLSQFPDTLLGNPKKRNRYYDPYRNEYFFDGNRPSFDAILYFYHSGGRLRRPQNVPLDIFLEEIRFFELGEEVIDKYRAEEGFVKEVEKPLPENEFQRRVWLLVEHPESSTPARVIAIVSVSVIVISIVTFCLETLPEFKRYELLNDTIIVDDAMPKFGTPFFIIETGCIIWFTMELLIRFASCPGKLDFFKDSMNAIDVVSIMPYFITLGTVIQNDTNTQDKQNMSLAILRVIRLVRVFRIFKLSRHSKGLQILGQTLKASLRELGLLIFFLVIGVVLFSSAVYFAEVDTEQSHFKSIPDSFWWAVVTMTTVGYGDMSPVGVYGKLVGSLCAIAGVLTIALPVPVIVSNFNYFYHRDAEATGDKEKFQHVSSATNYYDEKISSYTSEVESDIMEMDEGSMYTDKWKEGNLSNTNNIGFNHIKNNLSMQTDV
# Na+ current (INa) = Na+ current (INa) (Doryteuthis opalescens, UniProt Q25377); format: cell-based, squid Loligo opalescens
# Sequence of Na+ current (INa) (Q25377 1-1784): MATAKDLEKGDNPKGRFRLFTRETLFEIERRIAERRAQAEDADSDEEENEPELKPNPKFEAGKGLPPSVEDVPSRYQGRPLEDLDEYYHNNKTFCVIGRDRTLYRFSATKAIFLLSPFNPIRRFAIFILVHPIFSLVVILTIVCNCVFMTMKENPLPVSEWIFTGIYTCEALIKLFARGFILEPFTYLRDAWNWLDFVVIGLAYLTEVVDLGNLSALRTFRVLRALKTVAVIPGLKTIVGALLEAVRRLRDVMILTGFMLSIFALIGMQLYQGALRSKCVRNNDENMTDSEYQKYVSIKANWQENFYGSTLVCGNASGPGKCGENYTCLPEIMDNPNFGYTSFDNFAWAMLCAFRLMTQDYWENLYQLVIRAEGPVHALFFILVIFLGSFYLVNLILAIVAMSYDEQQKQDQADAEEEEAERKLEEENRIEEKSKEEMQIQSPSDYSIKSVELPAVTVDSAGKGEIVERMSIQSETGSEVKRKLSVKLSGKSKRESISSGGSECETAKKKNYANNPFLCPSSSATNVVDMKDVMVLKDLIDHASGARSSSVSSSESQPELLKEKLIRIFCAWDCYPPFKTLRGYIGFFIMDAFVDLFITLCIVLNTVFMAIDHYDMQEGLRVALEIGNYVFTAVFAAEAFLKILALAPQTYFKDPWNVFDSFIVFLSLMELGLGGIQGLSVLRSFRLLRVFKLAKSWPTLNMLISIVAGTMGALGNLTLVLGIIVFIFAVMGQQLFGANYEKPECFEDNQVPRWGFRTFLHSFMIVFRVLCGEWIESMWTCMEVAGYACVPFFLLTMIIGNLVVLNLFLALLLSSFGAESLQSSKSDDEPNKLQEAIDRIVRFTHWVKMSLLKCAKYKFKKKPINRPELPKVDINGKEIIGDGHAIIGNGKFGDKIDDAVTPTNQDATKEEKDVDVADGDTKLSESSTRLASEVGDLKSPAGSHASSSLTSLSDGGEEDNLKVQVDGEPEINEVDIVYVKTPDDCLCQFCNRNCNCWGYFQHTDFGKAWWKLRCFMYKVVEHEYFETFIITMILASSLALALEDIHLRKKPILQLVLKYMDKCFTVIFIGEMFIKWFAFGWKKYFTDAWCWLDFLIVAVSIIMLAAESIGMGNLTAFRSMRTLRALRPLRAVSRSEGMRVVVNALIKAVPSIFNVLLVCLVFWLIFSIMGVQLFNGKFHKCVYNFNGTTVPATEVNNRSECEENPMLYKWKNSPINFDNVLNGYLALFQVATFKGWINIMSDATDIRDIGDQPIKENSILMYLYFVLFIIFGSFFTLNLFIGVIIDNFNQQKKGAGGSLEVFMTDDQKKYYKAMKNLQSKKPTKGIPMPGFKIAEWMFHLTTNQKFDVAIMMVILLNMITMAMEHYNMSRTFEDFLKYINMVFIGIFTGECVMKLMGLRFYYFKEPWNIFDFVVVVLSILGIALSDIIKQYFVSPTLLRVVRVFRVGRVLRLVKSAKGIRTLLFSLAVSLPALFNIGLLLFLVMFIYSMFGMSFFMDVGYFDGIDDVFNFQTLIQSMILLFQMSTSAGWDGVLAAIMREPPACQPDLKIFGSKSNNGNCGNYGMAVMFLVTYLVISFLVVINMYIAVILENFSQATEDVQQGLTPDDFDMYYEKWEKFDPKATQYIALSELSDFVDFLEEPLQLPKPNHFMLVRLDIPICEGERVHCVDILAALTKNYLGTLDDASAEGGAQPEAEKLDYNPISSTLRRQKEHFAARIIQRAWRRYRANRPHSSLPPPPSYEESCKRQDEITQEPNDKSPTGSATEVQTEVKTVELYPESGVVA
# IK in GH3 cells = format: cell-based, rat; settings: read-out: apparent KD for IK block
# [3] = Fig. 12 A: 100 μM, +60 mV, 10K//100K, model C
# [4] = Fig. 4: 100 μM, +80 mV, 100K//200K
# [5] = Fig. 12 B: 10 °C, 100 μM, +60 mV, 10K//50K
# [6] = Fig. 12 B: 20 °C, 100 μM, +60 mV, 10K//50K
molecule,measurement,setting,value
CCC(=O)C(CC(C)N(C)C)(c1ccccc1)c1ccccc1 (centres unmarked) [methadone],ICa block at small depolarizations,"Ca2+ current (ICa); -10 and -20 mV, 200 and 500 μM methadone",Little or no block
same,fraction of drug molecules charged at physiological pH,pKa of methadone,> 99%
same,pKa,[1],9.64
CN1CC[C@]23c4c5ccc(O)c4O[C@H]2[C@@H](O)C=C[C@H]3[C@H]1C5 [morphine],effect on IK,"[2]; 350 μM, +30 mV",no detectable effect
same,effect on INa,"Na+ current (INa); 350 μM, data not shown",no detectable effect
same,effect on ICa,"Ca2+ current (ICa); 350 μM, data not shown",no detectable effect
CCC(=O)C(CC(C)[N+](C)(C)C)(c1ccccc1)c1ccccc1.[I-] (centres unmarked) [N-methyl-methadone],effect on IK when applied externally,[2]; 1 mM external,without effect; also recorded: no effect
same,effect of changes in external pH on IK block,"[2]; internally applied, data not shown",do not affect
same,effect on INa when applied externally,Na+ current (INa); 1 mM external,no effect
same,effect on ICa when applied externally,Ca2+ current (ICa); 1 mM external,no effect
C=CCN1CC[C@]23c4c5ccc(O)c4O[C@H]2C(=O)CC[C@@]3(O)[C@H]1C5 [naloxone],effect on the ability of methadone to block IK,[2]; data not shown,did not prevent
(±)methadone,use-dependent effect on peak INa,"Na+ current (INa); 50 μM, repetitive depolarization to +10 mV at 4 Hz",no detectable effect
same,use-dependent reduction in peak INa amplitude,"Na+ current (INa); 50 μM, repetitive depolarization to +70 mV, 5-ms pulses at 4 Hz, Hp -80 mV",20%
CCC(=O)C(C[C@H](C)N(C)C)(c1ccccc1)c1ccccc1 [(+)methadone],rate of block (K),[2]; [3],2.3 ms-1 mM-1
same,rate of unblock (L),[2]; [3],0.142 ms-1
CCC(=O)C(C[C@@H](C)N(C)C)(c1ccccc1)c1ccccc1 [(-)methadone],factor of increase of rate of block (K) from 10 to 20 °C,[2],2.1
same,steady state IK as % of control,"[2]; 100 μM, 25-ms depolarization to +80 mV, 100K//200K",27%
same,rate of block (K),[2]; [4],2.6 ms-1 mM-1
same,rate of unblock (L),[2]; [4],0.096 ms-1
same,rate of block (K),[2]; [3],2.2 ms-1 mM-1
same,rate of unblock (L),[2]; [3],0.062 ms-1
same,rate of block (K),[2]; [5],1.5 ms-1 mM-1
same,rate of unblock (L),[2]; [5],0.060 ms-1
same,rate of block (K),[2]; [6],3.2 ms-1 mM-1
same,rate of unblock (L),[2]; [6],0.084 ms-1
CCC(=O)O[C@](Cc1ccccc1)(c1ccccc1)[C@H](C)CN(C)C [propoxyphene],Kd,IK in GH3 cells,31 µM and ~30 µM
